The values below come from PMC8152588 (RSC Medicinal Chemistry, 2021).

In general, EC50 refers to the midpoint of the concentration-response curve.

Like-named read-outs stand apart in the source and are kept apart here. A value given as a limit tells only on which side of the number the result lay.

Data set [1] relates to NRK (normal rat kidney epithelial) cells. Description: Cytotoxicity. The following applies: for Selectivity towards leukemic cells compared with NRK cells (factor): MOLM-13 vs NRK; for EC50: ±SEM. Type of data set: cell-based.
The subject of another data set is MOLM-13 human AML cells. To be noted: ref Viktorsson et al.[26], cited from earlier work.
A short description of the next data set: Solubility observation. To be noted: cell media / DMSO. In kind it is physicochemical.
Setting [2] is: read-out: EC50 (μM) MOLM-13 2% O2, 2% O2, ±SEM.
[3] abbreviates: read-out: EC50 (μM) MOLM-13 19% O2, 19% O2, ±SEM.
[4] abbreviates: read-out: EC50 (μM) NRK 19% O2, 19% O2, 24 h exposure.
Where [5] appears, read: read-out: EC50 (μM) NRK 2% O2, 2% O2, 24 h exposure.

Consider `COc1cccc2c1[n+]([O-])c1cccc(O)c1[n+]2[O-]` [Compound 4, 1-hydroxy-6-methoxyphenazine 5,10-dioxide], for which the “Selectivity towards leukemic cells compared with NRK cells (factor)” value in data set [1] (hypoxic conditions (2% O2)) was “around 100”. The EC50 in the data set with MOLM-13 human AML cells (setting [2]) is 0.77 ± 0.13 µM; in the data set on MOLM-13 human AML cells (setting [3]) it was 1.4 ± 0.3 µM.

As to `Nc1n[n+]([O-])c2ccccc2[n+]1[O-]` [Compound 10, 3-amino-1,2,4-benzotriazine 1,4-dioxide], the EC50 in data set [1] (setting [4]) is above 100 µM; with MOLM-13 human AML cells (setting [2]), 22 ± 2 µM; in the data set on MOLM-13 human AML cells (setting [3]) it was 95 ± 8 µM.

`CCOC(=O)COc1cccc2c1[n+]([O-])c1cccc(O)c1[n+]2[O-]` [Compound 7, 1-hydroxy-6-(2-ethoxy-2-oxoethoxy) phenazine 5,10-dioxide]: the figures for the EC50 with MOLM-13 human AML cells (setting [2]) and in the data set on MOLM-13 human AML cells (setting [3]) were 0.49 ± 0.12 µM and 0.57 ± 0.06 µM, respectively.

In the case of `[O-][n+]1c2cccc(O)c2[n+]([O-])c2cccc(O)c21` [Compound 3, 1,6-dihydroxyphenazine 5,10-dioxide], the EC50 in data set [1] (setting [5]) was above 50 µM; in the data set with MOLM-13 human AML cells (setting [2]), 0.79 ± 0.1 µM; with MOLM-13 human AML cells (setting [3]), 2 ± 0.07 µM.

Regarding `CCOC(=O)Oc1cccc2c1[n+]([O-])c1cccc(OC(=O)OCC)c1[n+]2[O-]` [Compound 14], the EC50 in data set [1] (setting [5]) was above 25 µM.

Turning to `CN1CCN(C(=O)Oc2cccc3c2[n+]([O-])c2cc(Cl)c(Cl)cc2[n+]3[O-])CC1` [Compound 54], the “Selectivity towards leukemic cells compared with NRK cells (factor)” value in data set [1] (19% O2) is recorded as “more than 30”.

As to `[O-][n+]1c2ccccc2[n+]([O-])c2c(O)cccc21` [Compound 21, 1-Hydroxyphenazine 5,10-dioxide], the EC50 in data set [1] (setting [5]) is above 100 µM.

For `[O-][n+]1c2cc3ccccc3cc2[n+]([O-])c2c(O)cccc21` [Compound 45], the Solubility entry in the data set “Solubility observation” is given as “practically insoluble”.

In the case of `CCOC(=O)COc1cccc2c1[n+]([O-])c1cc(C)c(C)cc1[n+]2[O-]` [Compound 48], the EC50 was above 100 µM in data set [1] (setting [5]) and 140 ± 2 µM in data set [1] (setting [4]).

On to `Cc1cc2c(cc1C)[n+]([O-])c1c(O)cccc1[n+]2[O-]` [Compound 44, 7,8-Dimethyl-1-hydroxyphenazine 5,10-dioxide], for which, in data set [1] (setting [5]), the EC50 is above 50 µM.
